Some results are limits rather than exact numbers.

In the test the test system is HCV 1b_Huh-Luc/Neo-ET cell line persistently expressing a bicistronic genotype 1b replicon in Huh 7 cells. In words: HCV replicon assay, luciferase enzyme activity readout. It counts as cell-based. To be noted: Hepatitis C virus, 72 h incubation, average EC50 range, read-out: Inhibition of HCV genotype 1b. How it is done: Biological activity of the compounds of the invention was determined using an HCV replicon assay. The HCV 1b_Huh-Luc/Neo-ET cell line persistently expressing a bicistronic genotype 1b replicon in Huh 7 cells was obtained from ReBLikon GMBH. This cell line was used to test compound inhibition using luciferase enzyme activity readout as a measurement of compound inhibition of replicon levels.
On Day 1 (the day after plating cells), each compound is added in triplicate to the cells. Plates are incubated for 72 h prior to determining luciferase levels. Enzyme activity was measured using a Bright-Glo Kit (cat. number E2620) manufactured by Promega Corporation. The following equation was used to generate a percent control value for each compound. % Control=(Compound Luciferase Level/Control Luciferase Level)*100
The EC50 value was determined using GraphPad Prism and the following equation: Y=Bottom asymptote+(Top asymptote−Bottom asymptote)/(1+10^((Log EC50−X)*HillSlope))
EC50 values of compounds are determined several times in the replicon assay to generate average EC50 values. […]
On the technique in general: Replicon systems follow genome replication, usually without infectious particles.
Turning to `COC[C@H](NC(=O)OC)C(=O)N1CCC[C@H]1c1ncc(-c2ccc3c(c2)Cc2cc(F)c(-c4cnc([C@@H]5CCCN5C(=O)[C@@H](NC(=O)OC)[C@@H](C)OC)[nH]4)cc2O3)[nH]1` [Compound 43], the EC50 was less than 1 nM.
The value for `CC[C@H](C)[C@H](NC(=O)OC)C(=O)N1CCC[C@H]1c1ncc(-c2ccc3c(c2)Cc2cc(Cl)c(-c4cnc([C@@H]5CCCN5C(=O)[C@@H](NC(=O)OC)[C@@H](C)CC)[nH]4)cc2O3)[nH]1` [Compound 63] was less than 1 nM; that for `COC(=O)N[C@H](C(=O)N1CCC[C@H]1c1ncc(-c2cc3c(cc2F)Cc2cc(-c4cnc([C@@H]5CCCN5C(=O)[C@@H](NC(=O)OC)C5CCOCC5)[nH]4)ccc2O3)[nH]1)C(C)C` [Compound 44] was less than 1 nM.
On to `CC[C@H](C)[C@H](NC(=O)OC)C(=O)N1CSC[C@H]1c1ncc(-c2ccc3c(c2)Oc2ccc(-c4cnc([C@@H]5CSCN5C(=O)[C@@H](NC(=O)OC)[C@@H](C)CC)[nH]4)cc2O3)[nH]1` [Compound 67], for which the EC50 was less than 1 nM.
The value for `CC[C@H](C)[C@H](NC(=O)OC)C(=O)N1CCC[C@H]1c1ncc(-c2ccc3c(c2)Cc2ccc(-c4cnc([C@@H]5CCCN5C(=O)[C@@H](NC(=O)OC)[C@@H](C)CC)[nH]4)cc2O3)[nH]1` [Compound 31] was less than 1 nM; that for `COC(=O)N[C@@H](C(=O)N1CSC[C@H]1c1ncc(-c2ccc3c(c2)Oc2ccc(-c4cnc([C@@H]5CSCN5C(=O)[C@H](NC(=O)OC)c5ccccc5)[nH]4)cc2O3)[nH]1)c1ccccc1` [Compound 37] was less than 1 nM; that for `CC[C@H](C)[C@H](NC(=O)OC)C(=O)N1CCC[C@H]1c1ncc(-c2cc3c(cc2F)Cc2cc(-c4cnc([C@@H]5CCCN5C(=O)[C@@H](NC(=O)OC)C5CCOCC5)[nH]4)ccc2O3)[nH]1` [Compound 59] was less than 1 nM.
`C=CC[C@H](NC(=O)OC)C(=O)N1CCC[C@H]1c1ncc(-c2ccc3c(c2)Oc2ccc(-c4cnc([C@@H]5CCCN5C(=O)[C@H](CC=C)NC(=O)OC)[nH]4)cc2O3)[nH]1` [Compound 55]: the EC50 is less than 1 nM.
As to `COC(=O)N[C@H](C(=O)N1CCC[C@H]1c1ncc(-c2ccc3c(c2)Cc2ccc(-c4cnc([C@@H]5CCCN5C(=O)[C@@H](NC(=O)OC)C(C)C)[nH]4)cc2O3)[nH]1)C(C)C` [Compound 6], the EC50 is less than 1 nM.
To `COC(=O)N[C@H](C(=O)N1CCC[C@H]1c1ncc(-c2ccc3c(c2)Oc2ccc(-c4cnc([C@@H]5CCCN5C(=O)[C@@H](NC(=O)OC)C(C)C)[nH]4)cc2C32CC2)[nH]1)C(C)C` [Compound 26] belongs less than 1 nM.
The value for `COC(=O)N[C@H](C(=O)N1CCC[C@H]1c1ncc(-c2ccc3c(c2)CN(C)c2ccc(-c4cnc([C@@H]5CCCN5C(=O)[C@@H](NC(=O)OC)C(C)C)[nH]4)cc2CN3C)[nH]1)C(C)C` [Compound 13] was less than 1 nM; that for `COC(=O)N[C@H](C(=O)N1CSC[C@H]1c1ncc(-c2ccc3c(c2)Oc2ccc(-c4cnc([C@@H]5CSCN5C(=O)[C@@H](NC(=O)OC)C5CCCC5)[nH]4)cc2O3)[nH]1)C1CCCC1` [Compound 66] was less than 1 nM; that for `COC(=O)N[C@H](C(=O)N1CCC[C@H]1c1ncc(-c2ccc3c(c2)Cc2cc(Cl)c(-c4cnc([C@@H]5CCCN5C(=O)[C@@H](NC(=O)OC)[C@@H](C)OC)[nH]4)cc2O3)[nH]1)[C@@H](C)OC` [Compound 62] was less than 1 nM.
With `COC(=O)N[C@H](C(=O)N1CCC[C@H]1c1ncc(-c2cc3oc4ccc(-c5cnc([C@@H]6CCCN6C(=O)[C@H](NC(=O)OC)c6ccccc6)[nH]5)cc4c(=O)c3cc2F)[nH]1)C(C)C` [Compound 27], the EC50 is less than 1 nM.
To `CC[C@H](C)[C@H](NC(=O)OC)C(=O)N1CCC[C@H]1c1ncc(-c2ccc3c(c2)Cc2cc(F)c(-c4cnc([C@@H]5CCCN5C(=O)[C@@H](NC(=O)OC)[C@@H](C)CC)[nH]4)cc2O3)[nH]1` [Compound 53] belongs less than 1 nM; to `COC(=O)N[C@@H](C(=O)N1CCCC[C@H]1c1ncc(-c2ccc3c(c2)Oc2ccc(-c4cnc([C@@H]5CCCCN5C(=O)[C@H](NC(=O)OC)c5ccccc5)[nH]4)cc2O3)[nH]1)c1ccccc1` [Compound 48], less than 1 nM.
With `COC(=O)N[C@H](C(=O)N1CCC[C@H]1c1ncc(-c2ccc3oc4cc(-c5cnc([C@@H]6CCCN6C(=O)[C@@H](NC(=O)OC)C6CCOCC6)[nH]5)c(Cl)cc4c(=O)c3c2)[nH]1)C1CCOCC1` [Compound 52], the EC50 was less than 1 nM.
To `COC(=O)N[C@H](C(=O)N1CCC[C@H]1c1ncc(-c2ccc3c(=O)c4cc(-c5cnc([C@@H]6CCCN6C(=O)[C@H](NC(=O)OC6CCOCC6)c6ccccc6)[nH]5)ccc4oc3c2)[nH]1)C(C)C` [Compound 19] belongs less than 1 nM; to `C#CC[C@H](NC(=O)OC)C(=O)N1CCC[C@H]1c1ncc(-c2ccc3c(c2)Oc2ccc(-c4cnc([C@@H]5CCCN5C(=O)[C@H](CC#C)NC(=O)OC)[nH]4)cc2O3)[nH]1` [Compound 56], less than 1 nM.
The value for `COC(=O)N[C@@H](C)C(=O)N1CCC[C@H]1c1ncc(-c2ccc3oc4cc(-c5cnc([C@@H]6CCCN6C(=O)[C@@H](NC(=O)OC)C(C)C)[nH]5)ccc4c(=O)c3c2)[nH]1` [Compound 20] was less than 1 nM.
In the case of `COC(=O)N[C@H](C(=O)N1CCC[C@H]1c1ncc(-c2ccc3c(c2)Cc2ccc(-c4cnc([C@@H]5CCCN5C(=O)[C@@H](NC(=O)OC)[C@@H](C)OC)[nH]4)cc2O3)[nH]1)[C@@H](C)OC` [Compound 30], the EC50 was less than 1 nM.
To `COC(=O)N[C@H](C(=O)N1CCC[C@H]1c1ncc(-c2ccc3c(c2)Cc2cc(-c4cnc([C@@H]5CCCN5C(=O)[C@@H](NC(=O)OC)C(C)C)[nH]4)ccc2O3)[nH]1)C(C)C` [Compound 4] belongs 10 to 999 nM; to `COC(=O)N[C@H](C(=O)N1CCC[C@H]1c1ncc(-c2ccc3oc4cc(-c5cnc([C@@H]6CCCN6C(=O)[C@H](NC(=O)OC6CCOCC6)c6ccccc6)[nH]5)ccc4c(=O)c3c2)[nH]1)C(C)C` [Compound 21], less than 1 nM.
The value for `COC(=O)N[C@H](C(=O)N1CCC[C@H]1c1ncc(-c2ccc3c(c2)Oc2ccc(-c4cnc([C@@H]5CCCN5C(=O)[C@@H](NC(=O)OC)C(C)C)[nH]4)cc2O3)[nH]1)C(C)C` [Compound 3] was less than 1 nM; that for `COC(=O)N[C@@H](C(=O)N1CCC[C@H]1c1ncc(-c2ccc3oc4cc(-c5cnc([C@@H]6CCCN6C(=O)[C@H](NC(=O)OC)c6ccccc6)[nH]5)c(Cl)cc4c(=O)c3c2)[nH]1)c1ccccc1` [Compound 58] was less than 1 nM.
To `COC(=O)N[C@H](C(=O)N1CCC[C@H]1c1ncc(-c2ccc3c(c2)Cc2cc(Cl)c(-c4cnc([C@@H]5CCCN5C(=O)[C@@H](NC(=O)OC)C(C)C)[nH]4)cc2O3)[nH]1)C(C)C` [Compound 61] belongs less than 1 nM; to `COC(=O)N[C@H](C(=O)N1CCC[C@H]1c1ncc(-c2ccc3oc4cc(-c5cnc([C@@H]6CCCN6C(=O)[C@@H](NC(=O)OC)C6CCOCC6)[nH]5)c(F)cc4c(=O)c3c2)[nH]1)C1CCOCC1` [Compound 23], less than 1 nM; to `COC(=O)N[C@H](C(=O)N1CCC[C@H]1c1ncc(-c2ccc3c(c2)CCc2ccc(-c4cnc([C@@H]5CCCN5C(=O)[C@@H](NC(=O)OC)C(C)C)[nH]4)cc2O3)[nH]1)C(C)C` [Compound 12], less than 1 nM.
On to `COC(=O)N[C@H](C(=O)N1CCC[C@H]1c1ncc(-c2ccc3c(c2)Cc2cc(F)c(-c4cnc([C@@H]5CCCN5C(=O)[C@@H](NC(=O)OC)[C@@H](C)OC)[nH]4)cc2O3)[nH]1)[C@@H](C)OC` [Compound 40], for which the EC50 was less than 1 nM.
On to `CC[C@H](C)[C@H](NC(=O)OC)C(=O)N1CCC[C@H]1c1ncc(-c2ccc3c(c2)Oc2ccc(-c4cnc([C@@H]5CCCN5C(=O)[C@@H](NC(=O)OC)[C@@H](C)CC)[nH]4)cc2O3)[nH]1` [Compound 46], for which the EC50 was less than 1 nM.
For the compound `[2H]C([2H])([2H])C([2H])(C([2H])([2H])[2H])[C@]([2H])(NC(=O)OC)C(=O)N1CCC[C@H]1c1ncc(-c2ccc3c(c2)Oc2ccc(-c4cnc([C@@H]5CCCN5C(=O)[C@@]([2H])(NC(=O)OC)C([2H])(C([2H])([2H])[2H])C([2H])([2H])[2H])[nH]4)cc2O3)[nH]1` [Compound 57], the EC50 is less than 1 nM.
To `COC(=O)N[C@H](C(=O)N1CCC[C@H]1c1ncc(-c2ccc3c(c2)CCc2cc(-c4cnc([C@@H]5CCCN5C(=O)[C@@H](NC(=O)OC)C(C)C)[nH]4)ccc2O3)[nH]1)C(C)C` [Compound 7] belongs less than 1 nM; to `COC(=O)N[C@H](C(=O)N1CCOC[C@H]1c1ncc(-c2ccc3c(c2)Oc2ccc(-c4cnc([C@@H]5COCCN5C(=O)[C@@H](NC(=O)OC)C(C)C)[nH]4)cc2O3)[nH]1)C(C)C` [Compound 64], less than 1 nM.
To `CC[C@H](C)[C@H](NC(=O)OC)C(=O)N1CCC[C@H]1c1ncc(-c2ccc3c(c2)Cc2cc(F)c(-c4cnc([C@@H]5CCCN5C(=O)[C@@H](NC(=O)OC)[C@@H](C)OC)[nH]4)cc2O3)[nH]1` [Compound 41] belongs less than 1 nM; to `COC(=O)N[C@H](C(=O)N1CCC[C@H]1c1ncc(-c2ccc3oc4cc(-c5cnc([C@@H]6CCCN6C(=O)[C@H](NC(=O)OC)c6ccccc6)[nH]5)ccc4c(=O)c3c2)[nH]1)C(C)C` [Compound 18], less than 1 nM; to `COC(=O)N[C@H](C(=O)N1CCC[C@H]1c1ncc(-c2ccc3c(c2)Oc2ccc(-c4cnc([C@@H]5CCCN5C(=O)[C@@H](NC(=O)OC)[C@@H](C)OC)[nH]4)cc2O3)[nH]1)[C@@H](C)OC` [Compound 34], less than 1 nM.

The values are drawn from patent publication US9150554B2, “Fused ring inhibitors of hepatitis C” (Presidio Pharmaceuticals, Inc., priority 2009, dated 2015).
